Reference: patent publication US12714747B2, “Cytotoxic lipid particles targeted to tumor-associated myeloid cells (TAMCS) and synergized with radiation therapy for treating glioblastoma” (priority 2019, dated 2026)

Tests used:
TAMCs = assay: Annexin V viability assay of TAMCs; type: cell-based, C57BL/6 mice; details: 24 h
Procedure: In vitro viability, gene expression, and PD-L1 expression of TAMCs post treatments. In vitro generated TAMCs (8×10^5 cells/well) were seeded in 24-well plate. After 24 h of culture, cells were incubated with αPD-L1-LNP/Dina, αPD-L1-LNP, or free Dina. At predetermined time intervals, the cells were collected and washed, followed by the annexin V assay (BioLegend). RNA isolation was processed using the RNEasy Plus Mini Kit (Qiagen), and total RNA was quantified by Nanodrop (Thermo Scientific). cDNA was synthesized using the iScript cDNA synthesis kit (Bio-Rad), and analyzed by qPCR analysis (Bio-Rad). Selected groups of cells were exposed to irradiation and collected 72 h post treatments for cell circle analysis using BrdU Flow Kit (Fisher) following the manufacturer's protocol.

[1] = system: glioma-associated immune cells (TAMC, microglia, TIL); assay: Ex vivo TAMC elimination assay; type: cell-based, mice; details: 0, 25, 50 nM Dina, 72 h
Procedure: TAMC targeting and elimination in ex vivo mice and human glioma models. Cell suspension collected from mouse or human samples was plated into 96 well U bottom plate. Cells were pre-blocked with Ultra-LEAF purified anti-mouse CD16/32 antibody or Human TruStain FcX (BioLegend) for 10 min at 4° C., followed by incubation with fluorescence labeled LNPs (0.15 mg lipids/ml) for 1 h at 37° C. in 5% CO2 humidified atmosphere. After gently washed with ice-cold PBS thrice, the cells were collected for staining with viability dye and antibodies. The cellular uptake was analyzed by flow cytometry. The ex vivo TAMC elimination assay was performed using cell suspension collected from mouse glioma samples. Cells were plated into 96 well U bottom plate in 50% complete RPMI and 50% conditioned media collected from GL261 glioma cell culture as aforementioned. Cells were subject to the treatment of αPD-L1/LNP/Dina or free Dina at a Dina concentration of 0, 25, and 50 nM for 72 h, and analyzed by flow cytometry.

PD-L1 = PD-L1 expression on TAMCs after IFNγ stimulation (RT-qPCR, flow cytometry); type: cell-based, C57BL/6 mice; details: as low as
Procedure: To detect the PD-L1 expression on TAMCs post treatments, in vitro generated TAMCs (8×10^5 cells/well) were seeded in 24-well plate. After 24 h of culture, cells were subject to different treatments (Dina, αPD-L1/LNP, or αPD-L1-LNP/Dina) at a Dina concentration of 25 nM. Selected groups of cells were exposed to IFNγ (PeproTech) stimulation at 10 ng/ml for 24 h. Cells were collected and washed, followed by qPCR analysis or antibody staining for flow cytometry. The effect of irradiation on PD-L1 expression on TAMCs was similarly assessed 72 h post irradiation.

CCc1cnn2c(NCc3ccc[n+]([O-])c3)cc(N3CCCC[C@H]3CCO)nc12 [Dina, Dinaciclib]
cytotoxicity / viability of TAMCs (TAMCs): comparable cytotoxicity | off-target toxicity to tumor-infiltrating lymphocytes / immune cell populations [1]: severe off-target cytotoxicity | dose attenuating PD-L1 expression on TAMCs (PD-L1): 25 nM
